Measured values as given in patent US8188070B2, “Method of treating neurological diseases and disorders” (The Trustees of the University of Pennsylvania, priority 2002, dated 2012).

How the values were obtained:
S5 cells [1] = test: High throughput screen: ATP level (viable cells) in S5 cells with reduced SMN; assay type: cell-based, chicken; conditions: for EC50 / Emax: Gallus gallus, S5 cells, 18 ng/ml tet, 0.5 to 20 μM; for EC50: ATP level, read-out: EC50 (effective concentration for half maximum activity); for Emax: percentage increase of ATP level relative to cells treated with DMSO only, read-out: Maximum Activity (%)
Description: In the SMN conditional knockout cell line, S5, the endogenous smn gene is disrupted by homologous recombination, and the SMN protein is stably expressed from an SMN cDNA under the control of a tetracycline (tet)-repressible promoter (Wang and Dreyfuss (2001) supra).
Libraries of compounds were screened against the S5 cell line. […] The cells were incubated for an additional 72 hours and the number of viable cells in each well was determined by measuring the ATP level in the cell lysate, a sensitive assay commonly used to assess cell viability in HTS (Crouch, et al. (1993) J. Immunol. Methods 160:81-88). […] Activity of the compounds was measured as the difference between the sample and the average of the controls.
(§1) The activities of all compounds were further examined at concentrations ranging from 0.5 to 20 μM. […] The activity of each compound was determined as a percentage increase of the ATP level, reflecting the number of viable cells, relative to cells treated with an equal volume of DMSO only.
The chicken pre-B cell line DT40, the smn conditional knockout cell line S5 and the asf/sf2 conditional knockout cell line ASF-DT40 (Wang, et al. (1996) supra) were maintained using known methods (Wang and Dreyfuss (2001) supra). To reduce the SMN level, S5 cells were incubated with 18 ng/ml tetracycline hydrochloride (tet). Similarly, ASF-DT40 cells were treated with 14 ng/ml tet to partially deplete the ASF/SF2 protein.
After being incubated in medium containing 18 ng/ml tet for 24 hours, S5 cells were dispensed into 96-well plates at 120 μl per well. Compounds were added to these cells by pipetting 0.4 μl of the 3 mM libraries into each well to reach a final concentration of 10 μM. The 96-well plates were further incubated for 72 hours at 37° C. with 5% CO2. […] Luminescence was read on a Wallac Victor2 multi-channel plate reader (Perkin-Elmer, Boston, Mass.). The cellular ATP level is a direct measure of the number of viable cells in each well (Crouch, et al. (1993) supra). Data from luminescence readings were analyzed with MICROSOFT® Excel.

S5 cells [2] = conditions: for highest concentration at which there is no apparent cell toxicity: S5 cells
Description: as §1
SMN protein levels were also determined. Total cell lysates from treated cells were prepared and analyzed by immunoblotting with an anti-SMN antibody. […] The same blots were probed with antibodies against two other abundant proteins, Y14^10 and β-tubulin, to provide an internal control for the amount of cell lysate loaded on the gel.

S5 cells [3] = test: Cell number determination in S5 cells cultured with 18 ng/ml tet; assay type: cell-based, chicken; conditions: after 96 hours
Description: To determine an accurate measure of the number of viable cells, cell numbers were also determined.

[4] = high-throughput screening system

SMILES	EC50 (S5 cells [1]) [nM]	Emax (S5 cells [1]) [%]	also measured
Clc1ccc(C(c2ccc(Cl)cc2)n2cc[n+](CC(OCc3ccc(Cl)cc3Cl)c3ccc(Cl)cc3Cl)c2)cc1 (centres unmarked) [Calmidazolium, reference compound]			concentration improving growth of S5 cells (as low as) (S5 cells [1]; [4]): 215 nM; growth of S5 cells (S5 cells [1]; [4]): improved the growth of S5 cells
CN(C)CCC=C1c2ccccc2CCc2ccccc21 [Compound 1]	3000	30	
CNCCCN1c2ccccc2CCc2ccccc21 [Compound 2]	3000	30	
CN(C)CC/C=C1/c2ccccc2COc2ccccc21 [Compound 3]	5000	60	
CN(C)CCCN1c2ccccc2CCc2ccccc21 [Compound 4]	4000	35	
CN1CCN2c3ccccc3Cc3ccccc3C2C1 (centres unmarked) [Compound 5]	5000	75	cell toxicity (S5 cells [2]): low cell toxicity
CC(CN(C)C)CN1c2ccccc2CCc2ccccc21 (centres unmarked) [Compound 6]	2500	50	
CN(C)CCC=C1c2ccccc2C=Cc2ccccc21 [Compound 7]	3000	45	
CSc1ccc2c(c1)C(N1CCN(C)CC1)Cc1ccccc1S2 (centres unmarked) [Compound 8]	< 1000	25	
CN(C)CCCN1c2ccccc2CCc2ccc(Cl)cc21 [Compound 9]	1500	50	
CN1CCN(C2=Nc3cc(Cl)ccc3Nc3ccccc32)CC1 [Compound 10]	3000	30	
CN(C)CCCN1c2ccccc2Sc2ccccc21 [Compound 11]	2500	60	
CC(CN1c2ccccc2Sc2ccccc21)N(C)C (centres unmarked) [Compound 12]	2500	75	increase in cell number over control cells treated with DMSO alone (S5 cells [3]): three to four-fold increase in cell number
CC(CN(C)C)CN1c2ccccc2Sc2ccccc21 (centres unmarked) [Compound 14]	2500	40	
CCN(CC)C(C)CN1c2ccccc2Sc2ccccc21 (centres unmarked) [Compound 15]	2000	70	
CCC(=O)c1ccc2c(c1)N(CC(C)N(C)C)c1ccccc1S2 (centres unmarked) [Compound 16]	1000	60	highest concentration at which there is no apparent cell toxicity (S5 cells [2]): 4 µM
CSc1ccc2c(c1)N(CCC1CCCCN1C)c1ccccc1S2 (centres unmarked) [Compound 17]	1500	80	highest concentration at which there is no apparent cell toxicity (S5 cells [2]): 4 µM; increase in cell number over control cells treated with DMSO alone (S5 cells [3]): three to four-fold increase in cell number
CN(C)CCCN1c2ccccc2Sc2ccc(C(F)(F)F)cc21 [Compound 18]	1500	25	
CN(C)CC/C=C1\c2ccccc2Sc2ccc(Cl)cc21 [Compound 19]	2000	30	
CN(C)CCCN1c2ccccc2Sc2ccc(Cl)cc21 [Compound 20]	1000	35	highest concentration at which there is no apparent cell toxicity (S5 cells [2]): 4 µM
CN1CCC(OC(c2ccccc2)c2ccccc2)CC1 [Compound 21]		55	
O=C(CCCN1CC=C(n2c(=O)[nH]c3ccccc32)CC1)c1ccc(F)cc1 [Compound 22]		50	
CCN1CCCC(OC(=O)C(c2ccccc2)c2ccccc2)C1 (centres unmarked) [Compound 23]		50	
CN1Cc2c(N)cccc2C(c2ccccc2)C1 (centres unmarked) [Compound 24]		35	
COC(=O)[C@H](c1ccccc1Cl)N1CCc2sccc2C1 [Compound 25]	7000	100	
Cc1nc2sccn2c(=O)c1CCN1CCC(=C(c2ccc(F)cc2)c2ccc(F)cc2)CC1 [Compound 27]		80	
O=C(CCCN1CCC2(CC1)C(=O)NCN2c1ccccc1)c1ccc(F)cc1 [Compound 29]		140	
COc1ccc(S(=O)(=O)Nc2ccccc2CN(C)CC=Cc2ccc(Cl)cc2)cc1 [KN-92, 2-[N-(4-Methoxybenzenesulfonyl)] amino-N-(4-chlorocinnamyl)-N-methylbenzylamine, reference compound]			growth of S5 cells (S5 cells [1]; [4]): did not affect the growth of S5 cells
COc1ccc(S(=O)(=O)N(CCO)c2ccccc2CN(C)CC=Cc2ccc(Cl)cc2)cc1 [KN-93, reference compound]			growth of S5 cells (S5 cells [1]; [4]): improved the growth of S5 cells
